Drawing on ChEMBL document CHEMBL1862790, “Optimisation of fenarimol series for the treatment of Chagas disease”, this text covers IC50 and IC90 for 39 molecules.

Values joined by “and” are separate entries in the source; they are usually repeats but may differ in a detail not shown here. Equal entries are not always repeated.

The test system of data set [1] is Trypanosoma cruzi. Put plainly: microbe, parasite or virus in culture. Type of data set: functional, organism-based, Tulahuen LacZ, Clone C4.
For data set [2], the system named is Trypanosoma cruzi. Nature of the data set: microbe, parasite or virus in culture. Type of data set: functional, Tulahuen LacZ, Clone C4.
Data set [3] is described as follows: DNDI: Cytotoxicity against L-6 rat myoblasts from skeletal muscle cells. Particulars: L6 rat skeletal muscle myoblast cells.
The mark [4] stands for this setting: Trypanosoma cruzi, Tulahuen LacZ, Clone C4.

`O=C(N1CCCCC1)N1CCC(NC(c2ccc(Cl)cc2)c2cccnc2)CC1` (centres undefined): the IC50 (usually the concentration at which inhibition is half-maximal) is 58 nM in the data set with Trypanosoma cruzi [1] (setting [4]) and above 100000 nM in data set [3] (IC50). It took 130 nM to reach the 90% level with Trypanosoma cruzi [2] (setting [4]) (IC90).
The matching figures for `CN1CCN(C(c2ccc(Cl)cc2)c2cccnc2)CC1` (centres undefined): above 1000 nM, above 100000 nM and above 1000 nM.
Taken in the same sequence, the figures for `NC(=O)c1ccccc1C(O)(c1ccc(Cl)cc1)c1cccnc1` (centres undefined) were 33 nM, above 100000 nM and 140 nM.
Taken in the same sequence, the figures for `NC(=O)c1ccccc1N1CCC(NC(c2cccnc2)c2ccc(Cl)cc2F)CC1` (centres undefined) were 76 nM, 71800 nM and above 100 nM.
`O=S(=O)(Cc1ccccc1)NC1CCN(C(c2cnccn2)c2ccc(F)cc2F)CC1` (centres undefined): the IC50 in the data set on Trypanosoma cruzi [1] (setting [4]) was 720 nM; in data set [3] (IC50), above 100000 nM. Moreover, in the data set on Trypanosoma cruzi [2] (setting [4]), the IC90 (as a rule, the concentration needed for an effect of 90%) is above 1000 nM.
Taken in the same sequence, the figures for `CC(C)S(=O)(=O)N1CCN(C(c2cncnc2)c2ccc(Cl)cc2F)CC1` (centres undefined) were 120 nM, above 100000 nM and 330 nM.
The matching figures for `O=C(N1CCN(C(c2ccc(C(F)(F)F)cc2)c2cccnc2)CC1)C(F)(F)F` (centres undefined): 321 nM, 62600 nM and 798 nM.
The matching figures for `OC(c1cccnc1)(c1cccs1)c1ccc(Cl)cc1F` (centres undefined): 5 nM, above 100000 nM and 105 nM.
As for `O=C(Nc1ccc(Cl)cc1)NC1CCN(C(c2ccc(Cl)cc2)c2cccnc2)CC1` (centres undefined), the IC50 with Trypanosoma cruzi [1] (setting [4]) stood at 6 nM; in data set [3] (IC50), 21000 nM. The molecule further displayed an IC90 with Trypanosoma cruzi [2] (setting [4]) of 30 nM.
Taken in the same sequence, the figures for `Cn1cc(C(=O)N2CCC(NC(c3ccc(C(F)(F)F)cc3)c3cccnc3)CC2)cn1` (centres undefined) were 384 nM, above 100000 nM and 655 nM.
Taken in the same sequence, the figures for `CC(C)CC(=O)N1CCC(NC(c2ccc(C(F)(F)F)cc2)c2cnccn2)CC1` (centres undefined) were 270 nM, above 100000 nM and 660 nM.
For the molecule `O=S(=O)(NC1CCN(C(c2cnccn2)c2ccc(F)cc2F)CC1)c1ccc(C(F)(F)F)cc1` (centres undefined), the IC50 was above 1000 nM in the data set on Trypanosoma cruzi [1] (setting [4]) and 29400 nM in data set [3] (IC50). In the data set on Trypanosoma cruzi [2] (setting [4]), this molecule had an IC90 above 1000 nM.
In the case of `CCC(C(C)O)N1CCC(NC(c2ccc(Cl)cc2)c2cccnc2)CC1` (centres undefined), the IC50 was 230 nM in the data set on Trypanosoma cruzi [1] (setting [4]) and above 100000 nM in data set [3] (IC50). Besides, in the data set with Trypanosoma cruzi [2] (setting [4]), it took 600 nM to reach the 90% level (IC90).
The matching figures for `O=C(c1ccc(C(F)(F)F)cc1)N1CCC(NC(c2cnccn2)c2ccc(F)cc2F)CC1` (centres undefined): 290 nM, above 100000 nM and 830 nM.
The matching figures for `CC(C)Oc1ccc(C(c2cccnc2)N2CCC(NC(=O)Nc3ccccc3)CC2)cc1` (centres undefined): 57 nM, 74200 nM and 110 nM.
Taken in the same sequence, the figures for `CC(C)(C)CC(=O)N1CCN(C(c2ccc(Cl)cc2)c2cncnc2)CC1` (centres undefined) were 240 nM, above 100000 nM and 620 nM.
On to `O=C(NCCN1CCOCC1)c1cccc(C(O)(c2ccc(Cl)cc2)c2cccnc2)c1` (centres undefined), for which the IC50 was 500 nM in the data set with Trypanosoma cruzi [1] (setting [4]) and above 100000 nM in data set [3] (IC50). Besides, the IC90 in the data set with Trypanosoma cruzi [2] (setting [4]) was 950 nM.
Taken in the same sequence, the figures for `O=C(C1CC1)N1CCC(NC(c2ccc(Cl)cc2)c2cccnc2)CC1` (centres undefined) were 180 nM, above 100000 nM and 300 nM.
The matching figures for `OC(c1cncnc1)(c1ccccc1F)c1ccccc1Cl` (centres undefined): 2640 nM, above 100000 nM and 9370 nM.
Take `OC(c1ccc(C(F)(F)F)cc1)(c1cccnc1)c1ccc(Cl)cc1F` (centres undefined): the IC50 with Trypanosoma cruzi [1] (setting [4]) was 1.77 nM; in data set [3] it was above 100000 nM. In the data set with Trypanosoma cruzi [2] (setting [4]), this molecule gave an IC90 of 5 nM.
As for `O=C(C1CCCCC1)N1CCC(NC(c2ccc(C(F)(F)F)cc2)c2cnccn2)CC1` (centres undefined), the IC50 in the data set with Trypanosoma cruzi [1] (setting [4]) amounted to 200 nM; in data set [3] (IC50), 83800 nM. In the data set on Trypanosoma cruzi [2] (setting [4]), this molecule had an IC90 of 540 nM.
Taken in the same sequence, the figures for `FC(F)(F)c1ccc(C(c2cccnc2)N2CCC(Oc3cccc(Cl)c3)CC2)cc1` (centres undefined) were 59 nM, 61200 nM and above 100 nM.
The matching figures for `O=S(=O)(Cc1ccccc1)N1CCN(C(c2ccc(Cl)cc2)c2cccnc2)CC1` (centres undefined): 32 nM, 57700 nM and 140 nM.
With `Cc1cc(C(=O)NC2CCN(C(c3ccc(C#N)cc3)c3cccnc3)CC2)n(C(C)(C)C)n1` (centres undefined), the IC50 was 62 nM with Trypanosoma cruzi [1] (setting [4]) and above 100000 nM in data set [3] (IC50). Also, the IC90 with Trypanosoma cruzi [2] (setting [4]) was found to be 220 nM.
The matching figures for `O=C(NCc1ccccc1)c1cccc(C(O)(c2ccc(Cl)cc2)c2cccnc2)c1` (centres undefined): 160 nM, 84000 nM and 400 nM.
For the molecule `Clc1ccc(C(c2cccnc2)n2cccn2)cc1` (centres undefined), the 50% inhibitory concentration (IC50) was 290 nM with Trypanosoma cruzi [1] (setting [4]) and above 100000 nM in data set [3] (IC50). The molecule also gave an IC90 in the data set with Trypanosoma cruzi [2] (setting [4]) of 570 nM.
Taken in the same sequence, the figures for `CC(C)(C)OC(=O)NC1CCN(C(c2ccc(C#N)cc2)c2cccnc2)CC1` (centres undefined) were 26 nM, above 100000 nM and 100 nM.
With `Cc1ccncc1C(O)(c1ccc(Cl)cc1)c1ccc(C(F)(F)F)cc1` (centres undefined), the IC50 with Trypanosoma cruzi [1] (setting [4]) came out at 42 nM; in data set [3] (IC50) it was 56500 nM. The molecule also showed an IC90 in the data set on Trypanosoma cruzi [2] (setting [4]) of 140 nM.
On to `Cc1n[nH]c(C)c1C(=O)N1CCC(NC(c2ccc(C(F)(F)F)cc2)c2cccnc2)CC1` (centres undefined), for which the IC50 in the data set on Trypanosoma cruzi [1] (setting [4]) is 26.5 nM; in data set [3] (IC50) it was above 100000 nM. Besides, the IC90 in the data set with Trypanosoma cruzi [2] (setting [4]) came to 150 nM.
As to `CS(=O)(=O)N1CCN(C(c2ccc(Cl)cc2)c2cncnc2)CC1` (centres undefined), the figures for the IC50 (in the data set on Trypanosoma cruzi [1] (setting [4]); in data set [3] (IC50)) were 880 nM and above 100000 nM, respectively. The same molecule returned an IC90 in the data set on Trypanosoma cruzi [2] (setting [4]) of 7540 nM.
The matching figures for `OC1CCN(C(c2ccc(Cl)cc2)c2cccnc2)CC1` (centres undefined): 800 nM, above 100000 nM and above 1000 nM.
With `N#Cc1ccc(C(c2cccnc2)N2CCC(NC(=O)c3ccccc3)CC2)cc1` (centres undefined), the figures for the IC50 (with Trypanosoma cruzi [1] (setting [4]); in data set [3] (IC50)) were 24 nM and above 100000 nM, respectively. In addition, the IC90 was 90 nM with Trypanosoma cruzi [2] and 79 nM in the data set on Trypanosoma cruzi [2] (setting [4]).
As for `O=C(NC1CCN(C(c2ccc(Cl)cc2)c2cccnc2)CC1)C1CC1` (centres undefined), the 50% inhibitory concentration (IC50) in the data set on Trypanosoma cruzi [1] (setting [4]) was 78 nM; in data set [3] (IC50), 84100 nM. In the data set with Trypanosoma cruzi [2] (setting [4]), the IC90 came out at 580 nM.
Taken in the same sequence, the figures for `Fc1cc(Cl)ccc1C(NC1CCN(c2ccc(OC(F)(F)F)cc2)CC1)c1cccnc1` (centres undefined) were 8 nM, 48000 nM and 24 nM.
As to `CC(C)(C)OC(=O)N1CCC(NC(c2ccc(C(F)(F)F)cc2)c2cccnc2)CC1` (centres undefined), the IC50 with Trypanosoma cruzi [1] (setting [4]) was determined as 15 nM; in data set [3] (IC50) it was 57600 nM. Also, in the data set on Trypanosoma cruzi [2] (setting [4]), the IC90 was 59 nM.
In the case of `O=C(C1CC1)N1CCN(C(c2cncnc2)c2ccc(Cl)cc2F)CC1` (centres undefined), the IC50 is 171 nM with Trypanosoma cruzi [1], 180 nM with Trypanosoma cruzi [1] (setting [4]) and above 100000 nM in data set [3] (IC50). Moreover, the IC90 with Trypanosoma cruzi [2] was 306 nM and 614 nM.
As to `CS(=O)(=O)N1CCN(C(c2ccc(C#N)cc2)c2cccnc2)CC1` (centres undefined), the IC50 was 365 nM in the data set with Trypanosoma cruzi [1] (setting [4]) and above 100000 nM in data set [3] (IC50). In the data set with Trypanosoma cruzi [2] (setting [4]), this molecule displayed an IC90 of 734 nM.
Taken in the same sequence, the figures for `O=C(C1CC1)N1CCC(NC(c2cccnc2)c2ccc(Cl)cc2F)CC1` (centres undefined) were 126 nM, above 100000 nM and 584 nM.
Taken in the same sequence, the figures for `O=C(OCc1ccccc1)N1CCN(C(c2cccnc2)c2ccc(Cl)cc2F)CC1` (centres undefined) were 28 nM, 59700 nM and 88 nM.
